Test results taken from patent US10525220B2, “Droplet delivery device for delivery of fluids to the pulmonary system and methods of use” (PNEUMA RESPIRATORY, INC., priority 2016, dated 2020).
“And” between values parts separate entries of the source, which are not always exact repeats. Identical values can stand only once. One block for each substance: values may come before it.

Columns and labels:
Assay type in all cases: physicochemical
[1] = Gravimetric analysis of delivered dose per actuation; settings: for solution mass per dose (actuation), average of five doses: ampule weighed before and after dosing
Method: Gravimetric analysis was performed by weighing the Enbrel solution filled ampule before and after dosing. The average of five doses (actuations) were analyzed with an average of 4.25 mg+/−0.15 mg. The total delivered dose of Enbrel per actuation is therefore […] per actuation.
Gravimetric analysis was performed by weighing the Insulin solution filled ampule before and after dosing. The average of five doses (actuations) were analyzed with an average of 5.01 mg+/−0.53 mg. The total delivered dose of Insulin per actuation is therefore 34.8 mcg per actuation.

[2] = Size exclusion chromatography stability study after aerosol generation with test device
Description: Alternately, to determine the stability of active agent after droplet generation, the generated stream of droplets including the active agent may be collected and […] may be employed to monitor for any changes in large molecule aggregation and protein fragment content. Soluble protein aggregates and protein fragment content may be calculated by comparing respective peak area under the SEC-HPLC curve of dispensed protein solutions with controls (solutions remaining in the device reservoir). Drug solutions for testing include Enbrel, (ENBREL® single-use prefilled syringes in 25 mg (0.51 mL of a 50 mg/mL solution of etanercept), and insulin, (Humalog, 200 units/ml, 3 ml […] is performed with a YarraTM 3 um SEC-2000 LC column 300×7.8 mm, SecurityGuard cartridge kit and SecurityGuard cartridges GFC-2000, 4×3 mm ID. Fifty microliters of Enbrel from the syringe (ENBREL® single-use prefilled syringes in 25 mg/0.51 mL of a 50 mg/mL solution of etanercept) is diluted (4:1) (4 parts, 200 mcl of the mobile phase buffer solution to 1 part, 50 mcl Enbrel from syringe). Fifty microliter of the diluted Enbrel is injected and separation was performed at a flow rate of 1.0 ml/min. The mobile phase buffer system included a PHOS. BUFF. SALINE. […] UV detection is performed at 280 nm. […] Aerosol collection and SEC is performed in a similar fashion as for the Enbrel analysis and aerosol collection. […] Fifty microliters of the collected aerosol spray is injected onto the SEC column for analysis, while 50 mcl of the […] insulin solution is injected onto the SEC column for control samples.

[3] = Gel electrophoresis stability of active agent after droplet generation
Description: To determine the stability of active agent after droplet generation, the generated stream of droplets including the active agent is collected and the molecular weight of the active agent is verified using gel electrophoresis.

[4] = Anderson Cascade Impactor testing of Albuterol sulfate aerosol from droplet delivery device (Example B)
[5] = Enbrel aerosolized, average of S1 and S2
[6] = Albuterol 0.5%, 28.3 lpm, 10 actuations
[7] = Albuterol 0.5%, 28.3 lpm, N = 30
[8] = Albuterol 0.5%, Anderson Cascade, 28.3 lpm, 10 actuations
[9] = Pre-separator, cut diam. 10 μm, Albuterol 0.5%, 28.3 lpm, 10 actuations

Substance: Insulin: insulin, Humalog, 200 units/ml, 3 ml kwikpens
total delivered dose per actuation [1]: 34.8 mcg per actuation | solution mass per dose (actuation), average of five doses [1]: 5.01 mg | Peak Area %, Peak 1 ([2]; Insulin 200 U/ml, aerosolized): 27.881% and 28.721% | Peak Area %, Peak 2 ([2]; Insulin 200 U/ml, aerosolized): 69.780% and 67.807% | Peak Area %, Peak 3 ([2]; Insulin 200 U/ml, aerosolized): 2.184% and 2.797% | Peak Area %, Peak 2 ([2]; Insulin 200 U/ml, control): 69.630% | Peak Area %, Peak 3 ([2]; Insulin 200 U/ml, control): 0% | Peak 3, Avg. ([2]; Insulin aerosolized, average of S1 and S2): 2.4905 | Peak Area %, Peak 1 ([2]; Insulin from Kwikpen 200 U/ml, control): 29.926% | ejected dose forming a fragment which elutes at ~25 minutes ([2]; Insulin, test device): 2.5% | ejected dose structurally unchanged ([2]; Insulin, test device): 97.5%

Substance: etanercept [Enbrel]
change in electrophoretic mobility (molecular weight) of post-aerosol active agent vs control [3]: negligible change | total delivered dose per actuation [1]: 42.5 mcg per actuation | solution mass per dose (actuation), average of five doses [1]: 4.25 mg | Peak Area %, Peak 2 ([2]; Enbrel 10 mg/ml, aerosolized): 90.789% and 92.112% | Peak Area %, Peak 3 ([2]; Enbrel 10 mg/ml, aerosolized): 0.424% and 0.361% | Peak Area %, Peak 4 ([2]; Enbrel 10 mg/ml, aerosolized): 0.357% and 0.352% | Peak Area %, Peak 5 ([2]; Enbrel 10 mg/ml, aerosolized): 5.130% and 3.428% and 5.123% | Peak Area %, Peak 1 ([2]; Enbrel 10 mg/ml, aerosolized with test device): 2.796% and 3.476% | Peak Area %, Peak 2 ([2]; Enbrel 10 mg/ml, control): 96.676% and 95.909% | Peak Area %, Peak 3 ([2]; Enbrel 10 mg/ml, control): 0.373% and 0.351% | Peak Area %, Peak 4 ([2]; Enbrel 10 mg/ml, control): 0% | Peak Area %, Peak 5 ([2]; Enbrel 10 mg/ml, control): 0% | Peak 4, Avg. [2, 5]: 0.3545 | Peak 5, Avg. [2, 5]: 4.2755 | Peak Area %, Peak 1 ([2]; Enbrel diluted 4:1 (10 mg/ml), control): 2.428% and 3.041% | dose forming molecular fragments with elution times of 13 and 25 minutes ([2]; Enbrel, test device): 4.6% | structurally unchanged after delivering an aerosol dose ([2]; Enbrel, test device): 95.4%

Coarse Particles (>4.7 um) [4, 6]: 203.7 µg | Coarse Particules Fraction (>4.7 um) [4, 6]: 22.7% | Fine Particles (<0.4 um) [4, 6]: 31.0 µg | Fine Particule Fraction (<0.4 um) [4, 6]: 3.5% | Mouthpiece Losses [4, 6]: 12.2% | Respirable Dose (0.4-4.7 um) [4, 6]: 621.9 µg | Respirable Fraction (0.4-4.7 um) [4, 6]: 69.3% | Geometric StdDev (GSD) [4, 7]: 1.96 | MMAD [4, 7]: 1.93 um | Mouthpiece Losses [4, 8]: 109.4 µg | droplets of an average diameter of less than about 5 μm [4, 8]: over 75% | droplets with an average diameter of less than about 4 μm [4, 8]: over 70% | Cum. % < ([4]; FILTER stage): 0.00% | Cum. % > ([4]; FILTER stage): 100.00% | Cum. % < [4, 9]: 100.00% | Cum. % > [4, 9]: 0.00% | Cum. % < ([4]; stage 0, cut diam. 9 μm): 88.95% | Cum. % < ([4]; stage 1, cut diam. 5.8 μm): 76.22% | Cum. % > ([4]; stage 1, cut diam. 5.8 μm): 23.78% | Cum. % < ([4]; stage 2, cut diam. 4.7 μm): 71.05% | Cum. % > ([4]; stage 2, cut diam. 4.7 μm): 28.95% | Cum. % < ([4]; stage 3, cut diam. 3.3 μm): 64.29% | Cum. % > ([4]; stage 3, cut diam. 3.3 μm): 35.71% | Cum. % < ([4]; stage 4, cut diam. 2.1 μm): 52.89% | Cum. % > ([4]; stage 4, cut diam. 2.1 μm): 47.11% | Cum. % < ([4]; stage 5, cut diam. 1.1 μm): 21.05% | Cum. % > ([4]; stage 5, cut diam. 1.1 μm): 78.95% | Cum. % < ([4]; stage 6, cut diam. 0.7 μm): 8.47% | Cum. % > ([4]; stage 6, cut diam. 0.7 μm): 91.53% | Cum. % > ([4]; stage 7, cut diam. 0.4 μm): 96.38%
Substance: Albuterol sulfate

Substance: adalimumab
change in electrophoretic mobility (molecular weight) of post-aerosol active agent vs control [3]: negligible change
